From patent US7645785B2, “Benzimidazole derivatives” (Hoffmann-La Roche Inc., priority 2006, dated 2010)
pEC50, pIC50: −log10 of the molar value.

Columns and labels:
[1] = molecular target: T1, FXR ligand binding domain (GST-FXR LBD fusion protein) (Homo sapiens, UniProt Q96RI1); assay: Radioligand binding assay (scintillation proximity, radioligand displacement)
T1 construct: made in house; host or cells: E. coli BL21 (pLysS)
T1 sequence (Q96RI1 193-472 isoform Q96RI1-2 limits assumed): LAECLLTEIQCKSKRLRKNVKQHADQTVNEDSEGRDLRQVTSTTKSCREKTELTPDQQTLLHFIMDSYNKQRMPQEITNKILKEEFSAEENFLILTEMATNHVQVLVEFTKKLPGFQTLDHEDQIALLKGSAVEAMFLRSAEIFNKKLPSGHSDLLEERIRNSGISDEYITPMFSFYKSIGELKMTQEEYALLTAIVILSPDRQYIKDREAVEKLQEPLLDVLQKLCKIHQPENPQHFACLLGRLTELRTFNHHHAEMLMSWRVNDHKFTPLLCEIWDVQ
Procedure: The following tests were carried out in order to determine the activity of the compounds of formula (I). Background information on the binding assay can be found in: Nichols J S et al. “Development of a scintillation proximity assay for peroxisome proliferator-activated receptor gamma ligand binding domain”, (1998) Anal. Biochem. 257: 112-119.
(§1) Bacterial and mammalian expression vectors were constructed to produce glutathione-s-transferase (GST) and Gal4 DNA binding domain (GAL) proteins fused to the ligand binding domain (LBD) of human FXR (aa 193-473). To accomplish this, the portions of the sequences encoding the FXR LBD were amplified by polymerase chain reaction (PCR) from a full-length clone by PCR and then subcloned into the plasmid vectors. The final clone was verified by DNA sequence analysis.
The induction, expression, and subsequent purification of GST-LBD fusion protein was performed in E. coli strain BL21 (pLysS) cells by standard methods (Current Protocols in Molecular Biology, Wiley Press, ed. Ausubel et al).
Radioligand Binding Assay
Binding of test substances to the FXR ligand binding domain was assessed in a radioligand displacement assay. […] All binding assays were performed in 96-well plates and the amount of bound ligand was measured on a Packard TopCount using OptiPlates (Packard). […]

[2] = molecular target: T2, FXR-LBD (pFA-FXR-LBD, Gal4 fusion) in BHK21 cells (Homo sapiens, UniProt Q96RI1); assay: Luciferase transcriptional reporter gene assay; assay type: cell-based
T2 sequence (Q96RI1 262-486 limits assumed): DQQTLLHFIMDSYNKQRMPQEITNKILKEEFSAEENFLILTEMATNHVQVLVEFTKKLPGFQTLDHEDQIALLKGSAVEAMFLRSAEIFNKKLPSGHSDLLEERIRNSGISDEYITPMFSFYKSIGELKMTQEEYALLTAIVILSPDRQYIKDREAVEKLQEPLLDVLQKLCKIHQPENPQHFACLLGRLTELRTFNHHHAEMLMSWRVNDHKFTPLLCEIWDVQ
From the text: as §1
Luciferase Transcriptional Reporter Gene Assays
Baby hamster kidney cells (BHK21 ATCC CCL10) were grown in DMEM medium containing 10% FBS at 37° C. in a […]:5% CO2 atmosphere. Cells were seeded in 6-well plates at a density of 10^5 cells/well and then transfected with the pFA-FXR-LBD or expression plasmid plus a reporter plasmid. […] Six hours following transfection, the cells were harvested by trypsinization and seeded in 96-well plates at a density of 10^4 cells/well. […] Luminescence, as a measure of luciferase activity, was detected in a Packard TopCount. Transcriptional activation in the presence of a test substance was expressed as fold-change in luminescence compared to that of cells incubated in the absence of the substance. EC50 values were calculated using the XLfit program (ID Business Solutions Ltd. UK).

Structure (SMILES): CC(C)CC(C(=O)NC1CCCCC1)n1c(-c2ccc(Cl)cc2)nc2ccccc21 (stereo not shown) [Example 2, 2-[2-(4-chloro-phenyl)-benzoimidazol-1-yl]-4-methyl-pentanoic acid cyclohexylamide]
- pIC50 [1]: 5.82
- pEC50 [2]: 6.15

Structure (SMILES): COc1ccc(-c2nc3ccccc3n2C(C(=O)NCc2ccccc2)C2CCCCC2)c(OC)c1 (stereo not shown) [Example 34, N-benzyl-2-cyclohexyl-2-[2-(2,4-dimethoxy-phenyl)-benzoimidazol-1-yl]-acetamide]
- pIC50 [1]: 6.30
- pEC50 [2]: 7.07
